In paper PMC11387175, “Model informed dose regimen optimizing in development of leritrelvir for the treatment of mild or moderate COVID-19” (Frontiers in Pharmacology, 2024):

Assays:
Alpha variant = test system: Alpha variant; parameters: method as in Chen et al., 2024; conditions: ref Chen et al., 2024, read-out: concentration for 90% of maximal effect (EC90); cited from earlier work
SARS-CoV-2 [1] = test system: SARS-CoV-2; parameters: method as in Zhan et al., 2024; conditions: ref Zhan et al., 2024, cited from earlier work
[2] = Population pharmacokinetic analysis of phase I plasma concentrations (SAD, MAD, food effect); assay type: in vivo, human
Excerpt: (§1) The data obtained from a phase I clinical trial assessing the safety, tolerability, pharmacokinetics, and impact of food on leritrelvir Pharmacokinetics in healthy adult subjects (NCT05829551) were utilized in the PopPK analysis. The trial was designed as a randomized, double-blind, placebo-controlled study involving escalating single and multiple doses. The study design is outlined in Figure 1. In the single-ascending dose (SAD) arm, participants received leritrelvir tablets alone or with 100 mg of RTV. In the multiple-ascending dose (MAD) arm, leritrelvir tablets were given alone or with 100 mg RTV twice-daily on Days 1–4, followed by a single dose on Day 5, or thrice-daily on Days 1–4, followed by a single dose on Day 5. In the food consumption study arm, leritrelvir tablets alone or with 100 mg RTV were administered once during each dosing period after an overnight fast of at least 10 h or following a standard meal (high-fat, high-calorie) on Day 1. Each dosing period included a single administration, totaling two administrations, with a minimum interval of 8 days between periods.
FIGURE 1 Overall study design diagram. The study comprised three distinct components: a single-ascending dose study (SAD), a food effect study, and a multiple-ascending dose study (MAD). The SAD portion of the study was divided into two parts: Part 1 involved a dose escalation study of single-agent administration of RAY1216 tablets (S-1, S-2, and S-3), while Part 2 focused on the combination of RAY1216 tablets with 100 mg RTV (S-1R, S-2R, and S-3R). It should be noted that the S-2R and S-3R groups were initially planned but were ultimately not conducted due to dose-undetermined factors. The food effect study (FE) entails the administration of single doses of RAY1216 tablets at 800 mg (FE-1) and in combination with RTV at 500 mg (FE-2) to groups of 12 subjects. Group A undergoes a fasting administration cycle followed by a postprandial administration cycle, while Group B experiences the reverse order of administration cycles. The two cycles consist of crossover administration with a washout period lasting a minimum of 8 days. The MAD involves the co-administration of RAY1216 tablets (300 mg, 500 mg, and 700 mg) with 100 mg RTV in a BID dosing regimen, with escalating doses administered over 5 consecutive days and solely in the morning on the 5th day. Furthermore, a 400 mg RAY1216 single-agent TID dosing regimen administered over 5 consecutive days with administration limited to the morning on the 5th day.
Leritrelvir PK data was analyzed utilizing nonlinear mixed-effects modeling (NONMEM) ([Lindstrom and Bates, 1990]) and implemented with NONMEM version 7.5 (ICON Development Solutions. Ellicott City, Maryland, USA). The estimation algorithm used was the first-order conditional estimation method with interaction (FOCEI) of interindividual variability and residual variability. Perl Speaks NONMEM (PsN) version 4.2 (Uppsala University, Sweden) ([Lindbom et al., 2004]; [Lindbom et al., 2005]) and R version 4.1.2 were used as tools for executing NONMEM and summarizing outcomes. The model evaluated the impact of age, weight, body mass index, gender, albumin, alanine aminotransferase, aspartate aminotransferase, alkaline phosphatase, serum creatinine, creatinine clearance rate, total bilirubin, gamma-glutamyl transpeptidase, food consumption, and concomitant medication on the pharmacokinetics of leritrelvir. The final PopPK model was determined through a stepwise forward addition (p < 0.01) and backward deletion (p < 0.001) approach. The specifics of the model development process are outlined in the Supplementary Material. Evaluation of the final PopPK model was conducted using goodness-of-fit plots, prediction-corrected visual predictive check (pcVPC) ([Bergstrand et al., 2011]), bootstrapping ([Ette, 1997]), and shrinkage assessments ([Savic and Karlsson, 2009]). […]

[3] = Phase I safety and tolerability in healthy subjects; assay type: in vivo, human; conditions: monotherapy or in combination with ritonavir
Excerpt: as §1

Omicron BA.1 = test system: Omicron BA.1; parameters: method as in Chen et al., 2024; conditions: ref Chen et al., 2024, read-out: concentration for 90% of maximal effect (EC90); cited from earlier work
wild-type strain = test system: wild-type strain; parameters: method as in Chen et al., 2024; conditions: ref Chen et al., 2024, read-out: concentration for 90% of maximal effect (EC90); cited from earlier work
wild strain of COVID-19 = experiment: Target concentration needed to achieve EC90; assay type: cell-based, SARS-CoV-2
Beta variant = test system: Beta variant; parameters: method as in Chen et al., 2024; conditions: ref Chen et al., 2024, read-out: concentration for 90% of maximal effect (EC90); cited from earlier work
Omicron BA.5 = test system: Omicron BA.5; parameters: method as in Chen et al., 2024; conditions: ref Chen et al., 2024, read-out: concentration for 90% of maximal effect (EC90); cited from earlier work
[4] = test system: CYP1A2, CYP2B6, CYP2C8, CYP2C9, CYP2C19, and CYP2D6; experiment: Metabolizing enzyme identification (in-house data); assay type: in vitro ADME
CYP3A = experiment: Metabolizing enzyme identification (in-house data); assay type: in vitro ADME
Delta variant = test system: Delta variant; parameters: method as in Chen et al., 2024; conditions: ref Chen et al., 2024, read-out: concentration for 90% of maximal effect (EC90); cited from earlier work
[5] = test system: SARS-CoV-2 βCoV/KOR/KCDC03/2020 strain; parameters: method as in Chen et al., 2023; conditions: Vero cells, ref Chen et al., 2023, cited from earlier work
SARS-CoV-2 [6] = conditions: COVID-19 patients; 400 mg TID alone or 300 mg with 100 mg RTV BID; ref Wang et al., 2023; cited from earlier work

For `O=C(NC1CCCC1)C(=O)[C@H](C[C@@H]1CCNC1=O)NC(=O)[C@@H]1[C@H]2CCC[C@H]2CN1C(=O)[C@@H](NC(=O)C(F)(F)F)C1CCCCC1` [leritrelvir], the EC90 (Alpha variant) is listed as 351 nM, the “decrease in the SARS-CoV-2 viral load compared to the placebo” value (SARS-CoV-2 [1]; 400 mg TID, after a 3-day treatment period) is listed as “approximately tenfold” and the “reduction in the time to sustained clinical recovery of all 11 COVID-19 symptoms compared to the placebo” value (SARS-CoV-2 [1]; oral 400 mg TID for 5 days) is listed as 20.3 h. The “ratio of estimated clearance of leritrelvir to leritrelvir combined with RTV” value ([2]; 44.4/12.2) was 3.64, the “Absorption lag time, ALAG1: Bootstrapping Median (95% CI)” value ([2]; Comb (with RTV)) was 0.166 (0.131–0.185) hr and the “Absorption lag time, ALAG1: Population model estimates (%RSE) [95% CI]” value ([2]; Comb (with RTV)) was 0.166 h. For the same compound, the “Absorption rate, Ka: Bootstrapping Median (95% CI)” value ([2]; Comb (with RTV)) was 0.170 (0.154–0.185) hr^-1, the “Absorption rate, Ka: Population model estimates (%RSE) [95% CI]” value ([2]; Comb (with RTV)) was 0.169 h⁻¹ and the “Clearance, CL: Bootstrapping Median (95% CI)” value ([2]; Comb (with RTV)) was 12.2 (10.7–14.0) L/h. For the same compound, the “Clearance, CL: Population model estimates (%RSE) [95% CI]” value ([2]; Comb (with RTV)) was 12.2 L/h, the “Duration of zero order absorption, D1: Bootstrapping Median (95% CI)” value ([2]; Comb (with RTV)) was 0.0719 (0.0412–0.129) hr and the “Duration of zero order absorption, D1: Population model estimates (%RSE) [95% CI]” value ([2]; Comb (with RTV)) was 0.0684 h. The “Intercompartment clearance between the central compartment and peripheral compartment, Q: Population model estimates (%RSE) [95% CI]” value ([2]; Comb (with RTV)) was 0.611 L/h, the “Volume distribution of peripheral compartment, Vc: Bootstrapping Median (95% CI)” value ([2]; Comb (with RTV)) was 9.90 (7.68–13.2) L and the “Volume distribution of peripheral compartment, Vc: Population model estimates (%RSE) [95% CI]” value ([2]; Comb (with RTV)) was 9.78 L. The “Volume distribution of peripheral compartment, Vp: Bootstrapping Median (95% CI)” value ([2]; Comb (with RTV)) was 9.24 (6.93–12.8) L, the “Volume distribution of peripheral compartment, Vp: Population model estimates (%RSE) [95% CI]” value ([2]; Comb (with RTV)) was 9.30 L and the “Absorption lag time, ALAG1: Bootstrapping Median (95% CI)” value ([2]; Mono (leritrelvir alone)) was 0.188 (0.164–0.2) hr. For the same compound, the “Absorption lag time, ALAG1: Population model estimates (%RSE) [95% CI]” value ([2]; Mono (leritrelvir alone)) was 0.189 h, the “Absorption rate, Ka: Bootstrapping Median (95% CI)” value ([2]; Mono (leritrelvir alone)) was 0.292 (0.258–0.329) hr^-1 and the “Absorption rate, Ka: Population model estimates (%RSE) [95% CI]” value ([2]; Mono (leritrelvir alone)) was 0.293 h⁻¹. The “Clearance, CL: Bootstrapping Median (95% CI)” value ([2]; Mono (leritrelvir alone)) was 44.2 (39.0–50.7) L/h, the “Clearance, CL: Population model estimates (%RSE) [95% CI]” value ([2]; Mono (leritrelvir alone)) was 44.4 L/h and the “Duration of zero order absorption, D1: Bootstrapping Median (95% CI)” value ([2]; Mono (leritrelvir alone)) was 0.078 (0.0359–0.171) hr. For the same compound, the “Duration of zero order absorption, D1: Population model estimates (%RSE) [95% CI]” value ([2]; Mono (leritrelvir alone)) was 0.0722 h, the “Intercompartment clearance between the central compartment and peripheral compartment, Q: Population model estimates (%RSE) [95% CI]” value ([2]; Mono (leritrelvir alone)) was 5.57 L/h and the “Volume distribution of peripheral compartment, Vc: Bootstrapping Median (95% CI)” value ([2]; Mono (leritrelvir alone)) was 18.7 (14.3–25.3) L. The “Volume distribution of peripheral compartment, Vc: Population model estimates (%RSE) [95% CI]” value ([2]; Mono (leritrelvir alone)) was 18.9 L, the “Volume distribution of peripheral compartment, Vp: Bootstrapping Median (95% CI)” value ([2]; Mono (leritrelvir alone)) was 58.2 (44.7–79.5) L and the “Volume distribution of peripheral compartment, Vp: Population model estimates (%RSE) [95% CI]” value ([2]; Mono (leritrelvir alone)) was 58.2 L. The “Occasion variability of CL after multiple dose for 12 h, OC1.CL: Bootstrapping Median (95% CI)” value ([2]; cell for OC2.CL (96 h) is empty below) was 18.7 (10–29.3) %, the “Occasion variability of Vc after multiple dose for 12 h, OC1.Vc: Bootstrapping Median (95% CI)” value ([2]; cell for OC2.Vc (96 h) is empty below) was 53.1 (34–82.5) % and the “Proportional error of fed subjects within 2 h after dose: Bootstrapping Median (95% CI)” value ([2]; fed subjects, 0-2 h post-dosing) was 70.5 (56.4–80.7) %. The “Impact of food consumption on D1, D1.FED: Bootstrapping Median (95% CI)” value ([2]; fed vs fasted) was 1.33 (1.22–1.49), the “Impact of food consumption on F1, F1.FED: Bootstrapping Median (95% CI)” value ([2]; fed vs fasted) was 1.50 (1.25–1.82) and the “Impact of food consumption on Ka, Ka.FED: Bootstrapping Median (95% CI)” value ([2]; fed vs fasted) was 21.3 (10.8–41). For the same compound, the “Inter-individual variability CL: Bootstrapping Median (95% CI)” value ([2]; in vivo) was 29.9 (25.5–34.6) %, the “Inter-individual variability D1: Bootstrapping Median (95% CI)” value ([2]; in vivo) was 152 (114–189) % and the “Inter-individual variability Ka: Bootstrapping Median (95% CI)” value ([2]; in vivo) was 25.3 (20.7–29.4) %. The “Inter-individual variability Vc: Bootstrapping Median (95% CI)” value ([2]; in vivo) was 79.8 (64.7–93.4) %, the “Inter-individual variability Vp: Bootstrapping Median (95% CI)” value ([2]; in vivo) was 43.6 (31–52.5) % and the “Residual variability, Proportional residual: Bootstrapping Median (95% CI)” value ([2]; in vivo) was 24.2 (22.4–26.1) %. The “enhancement of exposure of leritrelvir by co-administration with RTV” value ([2]; with RTV vs alone) was “approximately 4 fold”, the “Grade 3 or higher adverse events (AEs)” value [3] was “No Grade 3 or higher adverse events (AEs) were reported” and the “changes in corrected QT (QTc) interval, pulse rate (PR) interval, heart rate, and blood pressure” value [3] was “no meaningful changes were observed”. The dose-dependent adverse reactions [3] was “No dose-dependent adverse reactions were observed”, the “serious adverse events (SAEs)” value [3] was “no serious adverse events (SAEs) occurred” and the EC90 (Omicron BA.1) was 208 nM. For the same compound, the EC90 (wild-type strain) was 228 nM, the “concentration needed to achieve EC90” value (wild strain of COVID-19) was 0.165 µg/mL and the EC90 (Beta variant) was 688 nM. The EC90 (Omicron BA.5) was 363 nM, the “involvement of other CYP isoforms in metabolism” value [4] was “minimal to no involvement” and the “role of CYP3A in metabolism” value (CYP3A) was “primary metabolizing enzyme”. For the same compound, the EC90 (Delta variant) was 254 nM, the IC90 ([5]; read-out: 90% inhibitory concentration (IC90)) was 92 nM and the IC50 ([5]; read-out: half maximal inhibitory concentration (IC50)) was 36 nM. The “duration of viral shedding” value (SARS-CoV-2 [6]) was 166 h and the “duration of viral shedding shorter than the placebo group” value (SARS-CoV-2 [6]) was 4.2 days.
